Data reported in patent US20110300229A1, “TREATING OR PREVENTING ROTAVIRUS INFECTION” (FONTERRA CO-OPERATIVE GROUP LIMITED, priority 2007, published 2011).
Where “and” joins values, the source holds several entries; their conditions need not be identical. Equal values may be shown once. Marks after values point to notes of the source that are not given here.

Test system: human rotavirus strain Wa
Experiment: Rotavirus infection assay in HT29 cells (crystal violet, % uninfected cells)
Format: cell-based
Conditions: for activity in preventing virus infection of the cells: over a range of concentrations
Experimental: The HT29 cell line was used to propagate the human rotavirus strain Wa (neuraminidase resistant) in the presence of 1 μg/ml trypsin in Dulbecco's minimal essential medium (DMEM) supplemented with 10% foetal calf serum and penicillin/streptomycin (100 μg/ml/100 units/ml). Rotavirus was harvested by freeze thawing twice, spun at 750 g to remove cell debris and stored at −80° C. The rotavirus was assayed and found to contain […] plaque forming units (pfu)/ml.
The infection assay used was based on a number of published assays (Scott et al 1979; Smith et al 1979; Guarino et al 1996; Superb et al 2001). Confluent HT29 cells grown in DMEM (seeded at 3×10^5/ml in 96 well plates) were washed twice in sterile PBS. Doubling dilutions of each of the products to be screened (initial concentration 5 mg/ml) were made in the plate in 50 μl volumes of DMEM. Virus was added (10^4 pfu/well) to all wells except the cells only control and plates were then incubated for two hours in 5% CO2 at 37° C. Other controls included virus plus cells, lipids only, pure GM3 and pure GD3. Following the two-hour incubation trypsin was added to all the wells containing virus at a concentration of 2 μg/ml—this step cleaves VP4 to polypeptides VP8 and VP5 and is needed for the virion to penetrate into the cells' interior. Plates were incubated at 37° C. in 5% CO2 for seven days and were checked daily for cytopathic effect in the virus only control wells. Media was removed and plates washed in sterile PBS, air-dried and fixed with methanol for one minute. Plates were air dried and then stained with 100 μl/well of 1% crystal violet (351884W, BDH, England) for five minutes. Plates were washed four times with sterile water to remove excess stain. 100 μl of acetic acid per well was added to solubilise the stain and absorbance was read at a wavelength of 595 nm in a Biorad ELISA plate reader. Each sample was assayed on a minimum of three separate occasions and the percentage of uninfected cells calculated.
Statistical analysis was performed using an unpaired Student t test (InStat for MacIntosh) to compare the effect of the lipid products derived from bovine milk with the virus only control at the lowest dilution of the product.

Row | Substance | Percentage of HT29 cells uninfected by rotavirus (15.625 μg/ml) | Percentage of HT29 cells uninfected by rotavirus (31.25 μg/ml) | Percentage of HT29 cells uninfected by rotavirus (62.5 μg/ml) | Percentage of HT29 cells uninfected by rotavirus (250 μg/ml, mean +/− spread) | activity in preventing virus infection of the cells | Percentage of HT29 cells uninfected by rotavirus (7.8125 μg/ml) | Percentage of HT29 cells uninfected by rotavirus (125 μg/ml)
1 | disialoganglioside GD3 | 31 +/− 1.5% | 40+/−3% and 40 +/− 2.5*** % | 59 +/− 1.4*** % | 57 +/− 1*** % | showed activity over a range of concentrations |  | 
2 | Monosialoganglioside GM3 | 33 +/− 2.5% | 43+/−10% |  |  | showed activity over a range of concentrations | 34 +/− 1.5% | 49 +/− 8*** %
